According to US20260035367A1 (Celgene Corporation, priority 2021, published 2026):
Where two headings read alike, the source gives them in different places.

Assays:
[1] = molecular target: T1, Recombinant human PKC-theta (His-tagged 362-706) (Homo sapiens, UniProt Q04759); assay: PKC-theta inhibition assay (HTRF KinEASE kit); format: biochemical; settings: ATP 6.5 μM, STK substrate 525 nM
T1 construct: Recombinant human PKC-theta (His-tagged 362-706); His
Summary of the method: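 IC50 values were from 4-parameter logistic fits of percent inhibition, based on acceptor/donor HTRF ratios over 10 semi-log compound doses. Kinase reactions, started with substrate plus ATP, ran 30 min at 25 °C in buffer supplemented with 10 mM MgCl2, 1 mM DTT and 0.1% Tween 20; detection lasted 2 h.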

[2] = molecular target: T2, Recombinant human PKC-delta (His-tagged 345-676) (Homo sapiens, UniProt Q05655); assay: PKC-delta inhibition assay (HTRF KinEASE kit); format: biochemical; settings: ratio, PKC-theta vs PKC-delta HTRF; for PKC-theta/PKC-delta selectivity (binned): binned A to G
T2 construct: PKC-delta (His-tagged 345-676); His
T2 sequence (Q05655 345-676): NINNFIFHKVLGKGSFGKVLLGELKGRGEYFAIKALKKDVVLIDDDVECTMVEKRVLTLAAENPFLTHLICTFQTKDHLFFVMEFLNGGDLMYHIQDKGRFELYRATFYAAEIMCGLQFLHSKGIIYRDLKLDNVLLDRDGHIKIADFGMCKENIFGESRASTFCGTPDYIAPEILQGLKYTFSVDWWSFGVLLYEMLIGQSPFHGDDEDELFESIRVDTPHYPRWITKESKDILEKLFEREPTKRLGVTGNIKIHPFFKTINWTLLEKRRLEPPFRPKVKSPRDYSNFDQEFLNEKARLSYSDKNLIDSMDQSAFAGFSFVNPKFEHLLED

[3] = test system: IL-2 secretion by human effector memory T cells (TEM); assay: Effector memory T cells IL-2 release assay (CD3/CD28 stimulation, HTRF IL-2 detection); format: cell-based; settings: 24 h; for IC50: Homo sapiens, T-cell
Summary of the method: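 IL-2 released into the supernatant was quantified by HTRF after 24 h at 37 °C in 5% CO2. The cells were stimulated primary human TEM from donor buffy coats, treated with a 10-point semi-log compound series (0.1% DMSO final, triplicates).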

[4] = binned A to H, read-out: PKC-theta HTRF pIC50 (binned) (converted)
[5] = read-out: PKC-theta HTRF pIC50 (converted)
[6] = binned A to G, read-out: PKC-theta IL2 pIC50 (binned) (converted)
[7] = read-out: PKC-theta IL2 pIC50 (converted)

T1 sequence (Q04759 362-706): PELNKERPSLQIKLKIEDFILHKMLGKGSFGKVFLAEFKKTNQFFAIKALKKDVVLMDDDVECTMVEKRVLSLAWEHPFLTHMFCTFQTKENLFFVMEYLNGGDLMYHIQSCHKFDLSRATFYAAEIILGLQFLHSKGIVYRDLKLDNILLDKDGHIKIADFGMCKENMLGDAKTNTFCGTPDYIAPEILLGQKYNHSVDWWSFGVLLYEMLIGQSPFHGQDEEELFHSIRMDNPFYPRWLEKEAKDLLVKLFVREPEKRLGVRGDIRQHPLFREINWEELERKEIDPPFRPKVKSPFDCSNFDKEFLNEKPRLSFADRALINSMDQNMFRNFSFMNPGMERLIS

Structure (SMILES) | IC50 [1, 4] | IC50 [1, 5] | PKC-theta/PKC-delta selectivity [2] | PKC-theta/PKC-delta selectivity (binned) [2] | IC50 [3, 6] | IC50 [3, 7] | PKC-theta IL2 pIC50 [3] | PKC-theta IL2 pIC50 (binned) ([3]; binned A to G)
C[C@H]1CN(c2cc(C(F)(F)F)cc(-c3ccnc4c3C(C)(C)C(=O)N4)n2)CCN1 [Example 141] | 3.16 to 10 nM | 3.98 nM | 16 | D (a ratio of between 10 and 20) | 31.6 to 100 nM | 50.1 nM |  | 
CC[C@H]1CN(c2cc(C(F)(F)F)cc(-c3ccnc4c3C(C)(C)C(=O)N4)n2)CCN1 [Example 142] | 1 to 3.16 nM | 2 nM | 17 | D (a ratio of between 10 and 20) | 31.6 to 100 nM | 39.8 nM |  | 
CC[C@H]1CN(c2cc(Cl)cc(-c3ccnc4c3C(O)(CC)C(=O)N4)n2)CCN1 (stereo partly drawn) [Example 143] | 3.16 to 10 nM | 3.98 nM | 8 | E (a ratio of between 5 and 10) | 31.6 to 100 nM | 31.6 nM |  | 
CCC1(C)C(=O)Nc2nccc(-c3cc(C(F)(F)F)cc(N4CCNC[C@H]4C)n3)c21 (stereo partly drawn) [Example 144] | 1 to 3.16 nM | 1.58 nM | 23 | C (a ratio of between 20 and 30) | 10 to 31.6 nM | 25.1 nM |  | 
CC[C@H]1CN(c2cc(Cl)cc(-c3ccnc4c3C(C)(C)C(=O)N4)n2)CCN1 [Example 145] | 0.316 to 1 nM | 0.794 nM | 25 | C (a ratio of between 20 and 30) | 10 to 31.6 nM | 15.8 nM |  | 
CCC1(C)C(=O)Nc2nccc(-c3cc(Cl)cc(N4CCNC[C@H]4C)n3)c21 (stereo partly drawn) [Example 146] | 1 to 3.16 nM | 2.51 nM | 4 | F (a ratio of between 1 and 5) | 10 to 31.6 nM | 25.1 nM |  | 
CCC1(C)C(=O)Nc2nccc(-c3cc(Cl)cc(N4CCN[C@@H](C)C4)n3)c21 (stereo partly drawn) [Example 147] | 1 to 3.16 nM | 2.51 nM | 10 | D (a ratio of between 10 and 20) | 31.6 to 100 nM | 31.6 nM |  | 
CC[C@H]1CN(c2cccc(-c3ccnc4c3C(C)(CC)C(=O)N4)n2)CCN1 (stereo partly drawn) [Example 148] | 10 to 31.6 nM | 20 nM | 3 | F (a ratio of between 1 and 5) | 100 to 316 nM | 158 nM |  | 
CC1(C)C(=O)Nc2nccc(-c3cc(C(F)(F)F)cc(N4CC5CC(C4)N5)n3)c21 [Example 150] | 31.6 to 100 nM | 63.1 nM | 13 | D (a ratio of between 10 and 20) | > 1000 nM | 1260 nM |  | 
C[C@@H]1CNCCN1c1cc(Cl)cc(-c2c(F)cnc3c2C(C)(C)C(=O)N3)n1 [Example 155] | 3.16 to 10 nM | 3.98 nM | 17 | D (a ratio of between 10 and 20) | 31.6 to 100 nM | 50.1 nM |  | 
C[C@@H]1CNCCN1c1cc(C(F)(F)F)cc(-c2c(F)cnc3c2C(C)(C)C(=O)N3)n1 [Example 156] | 10 to 31.6 nM | 12.6 nM | 12 | D (a ratio of between 10 and 20) | 100 to 316 nM | 126 nM |  | 
CCC1(C)C(=O)Nc2ncc(F)c(-c3cc(C(F)(F)F)cc(N4CCNC[C@H]4C)n3)c21 (stereo partly drawn) [Example 157] | 3.16 to 10 nM | 7.94 nM | 20 | C (a ratio of between 20 and 30) | 100 to 316 nM | 158 nM |  | 
CC1(C)C(=O)Nc2nccc(-c3cc(Cl)cc(N4CCNCC4C(F)F)n3)c21 (stereo not drawn) [Example 159] | 1 to 3.16 nM | 2 nM | 9 | E (a ratio of between 5 and 10) | 100 to 316 nM | 100 nM |  | 
CC1(C)C(=O)Nc2nccc(-c3cc(C(F)(F)F)cc(N4CCNCC4C(F)F)n3)c21 (stereo not drawn) [Example 160] | 1 to 3.16 nM | 3.16 nM | 9 | E (a ratio of between 5 and 10) | 31.6 to 100 nM | 100 nM |  | 
CC1(C)C(=O)Nc2nccc(-c3cc(C(F)(F)F)cc(N4CCNC[C@H]4CO)n3)c21 [Example 161] | 1 to 3.16 nM | 2.51 nM | 12 | D (a ratio of between 10 and 20) | 31.6 to 100 nM | 50.1 nM |  | 
C[C@H]1NCCN(c2cc(C(F)(F)F)cc(-c3ccnc4c3C(C)(C)C(=O)N4)n2)[C@H]1C [Example 168] | 0.316 to 1 nM | 0.501 nM | 14 | D (a ratio of between 10 and 20) |  |  | 8.1 | B (a measured pIC50 of between 8.0 and 8.5)
C[C@@H]1NCCN(c2cc(C(F)(F)F)cc(-c3ccnc4c3C(C)(C)C(=O)N4)n2)[C@@H]1C [Example 169] | 3.16 to 10 nM | 7.94 nM | 16 | D (a ratio of between 10 and 20) | 31.6 to 100 nM | 100 nM |  | 
CC(F)(F)c1cc(-c2c(F)cnc3c2C(C)(C)C(=O)N3)nc(N2CCNCC2)c1 [Example 174] | 31.6 to 100 nM | 31.6 nM | 10 | D (a ratio of between 10 and 20) | 100 to 316 nM | 316 nM |  | 
CC1(C)C(=O)Nc2nccc(-c3cc(C(F)(F)F)cc(N4CCCNCC4)n3)c21 [Example 175] | 3.16 to 10 nM | 5.01 nM | 21 | C (a ratio of between 20 and 30) | 31.6 to 100 nM | 63.1 nM |  | 
C[C@@H]1CN[C@@H](C)CN1c1cc(C(F)(F)F)cc(-c2ccnc3c2C(C)(C)C(=O)N3)n1 [Example 177] | 3.16 to 10 nM | 6.31 nM | 24 | C (a ratio of between 20 and 30) | 31.6 to 100 nM | 63.1 nM |  | 
C[C@@H]1CN(c2cc(C(F)(F)F)cc(-c3ccnc4c3C(C)(C)C(=O)N4)n2)[C@H](C)CN1 [Example 178] | 1 to 3.16 nM | 3.16 nM | 20 | D (a ratio of between 10 and 20) | 31.6 to 100 nM | 63.1 nM |  | 
C[C@@H]1CNC[C@H](C)N1c1cc(C(F)(F)F)cc(-c2ccnc3c2C(C)(C)C(=O)N3)n1 [Example 179] | 3.16 to 10 nM | 6.31 nM | 20 | D (a ratio of between 10 and 20) | 100 to 316 nM | 200 nM |  | 
C[C@@H]1CNC[C@@H](C)N1c1cc(C(F)(F)F)cc(-c2ccnc3c2C(C)(C)C(=O)N3)n1 [Example 180] | 1 to 3.16 nM | 2 nM | 28 | C (a ratio of between 20 and 30) | 316 to 1000 nM | 631 nM |  | 
